From patent publication US8372889B2, “Methods for modulating metabolism” (Omega Biopharma (I.P.3) Limited, priority 2004, dated 2013)
Counter-ions that a name gives are not always drawn.

Tests used:
[1] = test system: Goto-Kakizaki Wistar rats (GK rats); assay: Oral glucose tolerance test and starving plasma glucose in GK rats (Example 1); conditions: oral Metformin alone
Procedure: Nineteen male Goto-Kakizaki Wistar rats (GK rats) with weights of 300±20 g were kept in steel cages, 3-4 rats per cage. The cages were changed every two days. Indoor temperature and relative humidity was kept at 23±3° . and 65±1% respectively. Feed and drinking water was provided. GK rats were permitted a one-month period for adaptation.
One day prior to experimentation, at 17:00, all of the feed was removed from all groups, but not the drinking water. On the second day, at 09:30, starving plasma glucose was measured for all GK rats. At 10:00, glucose tolerance test (2 g/kg BW) was performed and the plasma glucose level was measured as well for all GK rats. […] On the ninth day, starving plasma glucose was measured and oral glucose tolerance test was performed again for all GK rats in all groups. […]
Six days following the change in regimen, starving plasma glucose was measured and glucose tolerance tests were performed, and blood and tissue samples were collected (liver, duodenum, pancreas gland, fat, and muscle) for all GK rats in all groups. […]
The glucose tolerance tests that were performed included the steps of starving the GK rats overnight. Next day at 09:30, starving plasma glucose was measured. […]

GK diabetic rats [2] = assay: Plasma insulin and adiponectin in GK diabetic rats (Example 3); assay type: in vivo, rat
Procedure: (§1) Thirty-six Goto-Kakizaki Wistar (GK) rats (purchased from Shanghai Slaccas Laboratory Animal Center) aged about 13 weeks and weighting 321-323 g were acclimated to the animal facility for two weeks in individual cages. Food and water were provided ad libitum.
(§2) The 36 GK rats were divided into 4 groups based on body weight (BW) and plasma glucose level. Group 1 (control, n=10) was treated with saline by gavage (2 ml/rat); Group 2 (DC, n=6) was treated with cysteamine hydrochloride by gavage (22.5 mg/kg BW in 2 ml tap water); Group 3 (Metformin, Met, n=10) was treated with Metformin by gavage (34 mg/kg BW in 2 ml tap water); Group 4 (Met+DC, n=10) was treated with Metformin 34 mg/kg BW/day in 2 ml tap water for the first 10 days and then was treated with both cysteamine hydrochloride 22.5 mg/kg BW plus Metformin 34 mg/kg BW in 2 ml tap water for the second 10 days. All animals were treated at 10:00 for 20 days.
The four groups of animals were kept in the same room (temp 23±3° ., relative humidity 65±1%) in different cages with wire mesh bottoms to reduce coprophagia throughout the experiment. The rats were subjected to fasting overnight from 22:00 to 9:30 of the following day before being subjected to a glucose tolerance test. The rats were treated with glucose 2 g/kg BW in 2 ml tap water at 9:30 for the glucose tolerance test and the blood was collected from the tail vein at 0.5 hr, 1 hr, 2 hr, and 3 hr after glucose injection. Plasma glucose concentrations were determined by Glucotrendr2 equipment (Roche Diagnostics, Basel, Switzerland). Plasma insulin concentrations were determined by radioimmunoassay (Insulin RIA Kit, NO:0410, purchased from Shanghai Radioimmunoassay Research Institution).

diabetic patients = assay: Open-label, randomized trial in diabetes type II patients (Example 4); conditions: for 24 h Microalbuminuria, Pre-treatment / FBS (fasting blood sugar), Pre-treatment / FCP (C peptide), Pre-treatment / FINS (fasting insulin), Pre-treatment / HOMA (Homeostasis Model Assessment), Pre-treatment / IGF, Pre-treatment / UA (blood uric acid), Pre-treatment: baseline before the trial treatment
Procedure: A small open-label, randomized trial was carried out at the national reference center for diabetes in China. Sixty patients of both sexes (ages ranged from 30 to 75 years old) diagnosed with diabetes type II were recruited. All subjects were informed and gave their consent to participate. Diabetes was diagnosed based on the WHO criteria set in 1999. […] Patients with the following conditions were excluded from the study: (1) dysfunction of heart, liver and/or kidney; (2) with acute diabetic complications and/or any acute cardiovascular complications or other chronic diseases in the past three months; and (3) pregnancy or nursing.
Patients were divided randomly into four groups of 15 patients each. A control group of subjects was not administered anti-diabetic drugs. The cysteamine alone (DC) group was treated with 540 mg/day of cysteamine hydrochloride. In the Metformin alone (Met) group, the dose of Metformin remained unchanged during the two months period. For the DC+Met group, patients remained on the same dose of Metformin they were originally administered, including an additional 100 mg/day of cysteamine hydrochloride. All patients were subjected to treatments for two months and samples were collected and measured at the beginning of, one month after, and two month after the trial for analysis. The results described herein are derived from the samples collected and measured at the beginning of the first month after the trial.

glut 4 = glut 4 expression in different tissues of GK diabetic rats (Example 3); assay type: in vivo, rat; conditions: liver, muscles, adipocytes
Procedure: Thirty-six Goto-Kakizaki Wistar (GK) rats (purchased from Shanghai Slaccas Laboratory Animal Center) aged about 13 weeks and weighting 321-323 g were acclimated to the animal facility for two weeks in individual cages. Food and water were provided ad libitum. The 36 GK rats were divided into 4 groups based on body weight (BW) and plasma glucose level. […] Group 2 (DC, n=6) was treated with cysteamine hydrochloride by gavage (22.5 mg/kg BW in 2 ml tap water); […] All animals were treated at 10:00 for 20 days.

GK diabetic rats [3] = assay: Glucose tolerance test in GK diabetic rats (Example 3); assay type: in vivo, rat
Procedure: as §1, §2
The four groups of animals were kept in the same room (temp 23±3° ., relative humidity 65±1%) in different cages with wire mesh bottoms to reduce coprophagia throughout the experiment. […] Plasma glucose concentrations were determined by Glucotrendr2 equipment (Roche Diagnostics, Basel, Switzerland). Plasma insulin concentrations were determined by radioimmunoassay (Insulin RIA Kit, NO:0410, purchased from Shanghai Radioimmunoassay Research Institution).

fat-feed rats = assay: Lipids, free fatty acid and uric acid in fat-feed rats (Example 5); assay type: in vivo, rat; conditions: for CH / FFA / HDL / LDL / TG / UA: Mean + STD
normal Wistar rats = assay: Fasting plasma glucose and insulin in normal Wistar rats (Example 2); assay type: in vivo, rat; conditions: for Fasting glucose / Fasting insulin: normal Wistar rats, Mean ± STD
Procedure: Thirty-two male Wistar rats (purchased from Shanghai Slaccas Laboratory Animal Center) aged about 13 weeks and weighting around 300 g were acclimated to the animal facility for two weeks in individual cages. Food and water were provided ad libitum. The Wistar rats were divided randomly into 4 groups and each group contained 8 rats. […] All animals were treated at 10:00 for 27 days. The four groups of animals were kept in the same room in different cages with wire mesh bottoms to reduce coprophagia throughout the experiment. […] Plasma glucose concentrations were determined by Glucotrendr2 equipment (Roche Diagnostics, Basel, Switzerland). Plasma insulin concentrations were determined by radioimmunoassay (Insulin RIA Kit, NO:0410, purchased from Shanghai Radioimmunoassay Research Institution). The abbreviation STD denotes the variability of the data about the mean or “standard deviation.” The abbreviation p denotes the level of significance of the results.

[4] = doses of 11.25 mg/kg and 22.5 mg/kg
[5] = DC15: 15 mg/kg BW by gavage for 27 days
[6] = DC22.5: 22.5 mg/kg BW by gavage for 27 days
[7] = DC30: 30 mg/kg BW by gavage for 27 days
[8] = normal, fasting Wistar rats, 15-30 mg/kg BW

CN(C)C(=N)N=C(N)N [Metformin, reference compound]
duodenal plasma glucose levels and insulin resistance (in words) [1]: to some extent, lowers
insulin levels (in words) (GK diabetic rats [2]): decreased, but not statistically significant
insulin-like growth factor 1 (IGF1) (in words) (diabetic patients): only a decrease
24 h Microalbuminuria, Pre-treatment (diabetic patients): 27.5 ± 23.69
FBS (fasting blood sugar), Pre-treatment (diabetic patients): 8.92 ± 2.7
FCP (C peptide), Pre-treatment (diabetic patients): 579 ± 212
FINS (fasting insulin), Pre-treatment (diabetic patients): 19.35 ± 10.2
HOMA (Homeostasis Model Assessment), Pre-treatment (diabetic patients): 7.33 ± 3.3
IGF, Pre-treatment (diabetic patients): 52.81 ± 10.04
UA (blood uric acid), Pre-treatment (diabetic patients): 320 ± 67
expression of total glut4 (in words) (glut 4): increased, but not significantly

NCCS [cysteamine hydrochloride]
Glucose tolerance test, plasma glucose, 2 hr (GK diabetic rats [3]; gavage DC 22.5 mg/kg BW, Metformin 34 mg/kg BW, 20 days, Met+DC: DC added for second 10 days, after glucose 2 g/kg BW, Mean ± STD): 11.00 ± 0.8 mmol/L
glucose levels (in words) (GK diabetic rats [3]; glucose tolerance test, combination compared with Metformin alone, all time points except Fasting): did not affect
LDL (in words) (fat-feed rats): decrease LDL but not significantly
CH (fat-feed rats; DC11.25: 11.25 mg/kg): 1.6 ± 0.31 mmol/L
FFA (fat-feed rats; DC11.25: 11.25 mg/kg): 842 ± 256 µmol/L
HDL (fat-feed rats; DC11.25: 11.25 mg/kg): 1.11 ± 0.16 mmol/L
LDL (fat-feed rats; DC11.25: 11.25 mg/kg): 0.61 ± 0.18 mmol/L
TG (fat-feed rats; DC11.25: 11.25 mg/kg): 1.15 ± 0.12 mmol/L
UA (fat-feed rats; DC11.25: 11.25 mg/kg): 17.41 ± 1.99 mg/L
CH (fat-feed rats; DC22.5: 22.5 mg/kg): 1.55 ± 0.27 mmol/L
FFA (fat-feed rats; DC22.5: 22.5 mg/kg): 1087 ± 181 µmol/L
HDL (fat-feed rats; DC22.5: 22.5 mg/kg): 1.04 ± 0.09 mmol/L
LDL (fat-feed rats; DC22.5: 22.5 mg/kg): 0.63 ± 0.18 mmol/L
TG (fat-feed rats; DC22.5: 22.5 mg/kg): 1.1 ± 0.08 mmol/L
UA (fat-feed rats; DC22.5: 22.5 mg/kg): 16.12 ± 1.04 mg/L
free fatty acid (in words) (fat-feed rats; at doses indicated): significantly decrease
uric acid (in words) (fat-feed rats; at doses indicated): significantly decrease
cholesterol levels (in words) (fat-feed rats; [4]): can decrease
triglyceride levels (in words) (fat-feed rats; [4]): can decrease
HDL (in words) (fat-feed rats; not significantly): trend that cysteamine can increase HDL
Fasting glucose (normal Wistar rats; [5]): 4.05 ± 0.23
Fasting insulin (normal Wistar rats; [5]): 48.82 ± 3.27
Fasting glucose (normal Wistar rats; [6]): 3.94 ± 0.27
Fasting insulin (normal Wistar rats; [6]): 48.39 ± 2.38
Fasting glucose (normal Wistar rats; [7]): 3.95 ± 0.17
Fasting insulin (normal Wistar rats; [7]): 51.32 ± 2.94
blood glucose levels (in words) (normal Wistar rats; [8]): dose-dependent effect on lowering
blood insulin levels (in words) (normal Wistar rats; [8]): does not affect
adiponectin (in words) (GK diabetic rats [2]): significantly increased
insulin levels (in words) (GK diabetic rats [2]): did not affect
C peptide (CP) (in words) (diabetic patients): decreases significantly
HOMA (Homeostasis Model Assessment) (in words) (diabetic patients): decreases significantly
blood uric acid (UA) levels (in words) (diabetic patients): decreases significantly
fasting insulin (FINS) (in words) (diabetic patients): decreases significantly
insulin-like growth factor 1 (IGF1) (in words) (diabetic patients): decreases significantly
microalbuminuria (in words) (diabetic patients): obvious but not statistically significantly
24 h Microalbuminuria, Pre-treatment (diabetic patients): 42.73 ± 31.33
FBS (fasting blood sugar), Pre-treatment (diabetic patients): 7.52 ± 1.57
FCP (C peptide), Pre-treatment (diabetic patients): 739 ± 183
FINS (fasting insulin), Pre-treatment (diabetic patients): 35.39 ± 14.43
HOMA (Homeostasis Model Assessment), Pre-treatment (diabetic patients): 11.94 ± 4.62
IGF, Pre-treatment (diabetic patients): 49.36 ± 5.75
UA (blood uric acid), Pre-treatment (diabetic patients): 389 ± 50.98
expression of total glut4 (in words) (glut 4): significantly increase
